≈ marks a conversion by molar mass, not a printed value. Read-outs that look alike come from different tables or passages of the source.
Assays:
CCD-1059Sk cells = test: MTT cytotoxicity assay, normal human skin fibroblasts CCD-1059Sk; format: cell-based; conditions: normal human fibroblasts CCD-1059Sk, MTT assay after 24 h of incubation; read-out: IC50 ± SD, CCD-1059-Sk
Method: (§1) Samples of complexes (about 20 mg) were digested in a concentrated mixture of 36% HCl (1 mL) and 65% HNO3 (6 mL). The contents of Cd (II) in the solid complexes were determined with an F-AAS spectrometer (Analytik Jena, contraAA 300, Jena, Germany) with a continuous source of light and using an air/acetylene flame (Analytik Jena, contraAA 300). Absorbances were measured at the analytical spectral lines at 228.8 nm for Cd (II). The limit of quantification was 0.004 mg/L for Cd (II). The solid samples were decomposed using an Anton Paar Multiwave 3000 (Graz, Austria) closed-system instrument. Mineralization was carried out for 45 min at 240 °C under a pressure of 60 bar. The contents of carbon, hydrogen, and nitrogen were determined with an instrument from Vario Micro Company Elementar Analysensysteme GmbH (Langenselbold, Germany). FTIR spectra were recorded with an IR Tracer-100 Schimadzu Spectrometer (4000–600 cm^−1 with an accuracy of recording of 1 cm^−1, Kyoto, Japan) using KBr pellets. The thermal analyses were carried out with a Netzsch STA 449 F1 Jupiter thermoanalyzer (Netzsch-Geratebau GmbH, Selb, Germany) coupled with a Netzsch Aeolos Quadro QMS 403 mass spectrometer (Netzsch-Geratebau GmbH, Selb, Germany). The samples were heated up to 1000 °C in corundum crucibles with a heating rate of 10 °C/min in an atmosphere of synthetic air (20% O2, 80% N2). The cytotoxic effects of the compounds were evaluated using glioblastoma (T98G), neuroblastoma (SK-N-AS), and lung adenocarcinoma (A549) cell lines and normal human skin fibroblasts (CCD-1059Sk). T98G and SK-N-AS cells were cultured in high-glucose DMEM and A549 cells were cultured in DMEM/F12, while CCD-1059Sk cells were cultured in MEM. All media were supplemented with 10% (FBS), 100 U/mL of penicillin, and […] of streptomycin (PenStrep). Cells were incubated at 37 °C in a humidified atmosphere of 5% CO2. Stock solutions were prepared by dissolving the compounds in sterile dimethyl sulfoxide (DMSO) to obtain a concentration of 50 mg/mL. The cells were seeded into sterile 96-well plates (Nunc) at a density of 1 × 10^5 cells/mL. After 24 h of incubation, the medium was removed from each well, and then the cells were incubated for the next 24 h with different concentrations of the tested compounds (1–100 µg/mL) in their respective media containing 2% FBS. The cytotoxicity of the compounds was evaluated using an MTT assay, which was based on the conversion of 3-(4,5-dimethylthiazol-2-yl)-2,5-diphenyltetrazolium bromide (MTT) into dark-blue formazan crystals. Briefly, after 24 h of incubation of the cells with varying concentrations of the tested compounds, all culture media were removed from the plates. The cells were washed with PBS, and then 100 µL of medium containing 10% MTT solution (5 mg/mL) was added to each well. After 3 h of incubation, 100 µL (per well) of 10% SDS buffer solution was added to solubilize the formazan crystals. After overnight incubation, the absorbance was measured at 570 nm using a microplate reader (Epoch, BioTek Instruments). Experiments were repeated twice, and the measurements in each experiment were run in triplicate. The viability of the investigated cells was expressed as the percentage of the viability of the untreated cells, and the results were transformed into IC50 values (expressed as mean ± SD). The complexes were screened for antibacterial and antifungal activity by using the micro-dilution broth method with Mueller–Hinton broth for the growth of bacteria or Mueller–Hinton broth with 2% glucose for the growth of fungi. […]

A549 cells = test: MTT cytotoxicity assay, lung adenocarcinoma A549; format: cell-based, human; conditions: Homo sapiens; lung carcinoma A549, MTT assay after 24 h of incubation; read-out: IC50 ± SD, A549
Method: as §1

SK-N-AS cells = test: MTT cytotoxicity assay, neuroblastoma SK-N-AS; format: cell-based, human; conditions: MTT assay after 24 h of incubation, read-out: IC50 ± SD, SK-N-AS
Method: as §1

T98G cells = test: MTT cytotoxicity assay, glioblastoma T98G; format: cell-based, human; conditions: Homo sapiens, MTT assay after 24 h of incubation, read-out: IC50 ± SD, T98G
Method: as §1

[1] = system: S. typhimurium ATCC 14028; test: MIC, micro-dilution broth method; format: cell-based, Salmonella Typhimurium; conditions: Salmonella enterica, Gram-negative bacteria
Method: as §1

[2] = system: S. epidermidis ATCC 12228; test: MIC, micro-dilution broth method; format: cell-based, Staphylococcus epidermidis; conditions: Staphylococcus epidermidis
Method: as §1

E. coli ATCC 25922 = test: MIC, micro-dilution broth method; format: cell-based, Escherichia coli; conditions: Escherichia coli, ATCC25922, Gram-negative bacteria
Method: as §1

C. albicans ATCC 102231 = test: MIC, micro-dilution broth method; format: cell-based, Candida albicans
Method: as §1

C. glabrata ATCC 2091 = test: MIC, micro-dilution broth method; format: cell-based
Method: as §1

K. pneumoniae ATCC 13883 = test: MIC, micro-dilution broth method; format: cell-based, Klebsiella pneumoniae; conditions: Klebsiella pneumoniae, ATCC13883, Gram-negative bacteria
Method: as §1

B. subtilis ATCC 6633 = test: MIC, micro-dilution broth method; format: cell-based, Bacillus subtilis; conditions: Bacillus subtilis
Method: as §1

S. aureus ATCC 25923 = test: MIC, micro-dilution broth method; format: cell-based, Staphylococcus aureus; conditions: Staphylococcus aureus
Method: as §1

M. luteus ATCC 10240 = test: MIC, micro-dilution broth method; format: cell-based, Micrococcus luteus; conditions: Micrococcus luteus
Method: as §1

P. aeruginosa ATCC 9027 = test: MIC, micro-dilution broth method; format: cell-based, Pseudomonas aeruginosa; conditions: Pseudomonas aeruginosa, ATCC9027, Gram-negative bacteria
Method: as §1

[3] = system: C. parapsilosis ATCC 22019; test: MIC, micro-dilution broth method; format: cell-based, Candida parapsilosis; conditions: Yeasts, micro-dilution broth with 2% glucose
Method: as §1

B. cereus ATCC 10876 = test: MIC, micro-dilution broth method; format: cell-based, Bacillus cereus; conditions: Bacillus cereus
Method: as §1

E. faecalis ATCC 29212 = test: MIC, micro-dilution broth method; format: cell-based, Enterococcus faecalis; conditions: Enterococcus faecalis
Method: as §1

P. mirabilis ATCC 12453 = test: MIC, micro-dilution broth method; format: cell-based, Proteus mirabilis; conditions: Proteus mirabilis, ATCC12453, Gram-negative bacteria
Method: as §1

[4] = Yeasts, micro-dilution broth with 2% glucose

## COc1cc([C@@H]2c3cc4c(cc3[C@@H](O[C@@H]3O[C@@H]5CO[C@@H](C)O[C@H]5[C@H](O)[C@H]3O)[C@H]3COC(=O)[C@H]23)OCO4)cc(OC)c1O [Etoposide, reference compound]
CCD-1059Sk cells
  IC50: > 170 µM
A549 cells
  IC50: > 170 µM
SK-N-AS cells; Homo sapiens, SK-N-AS, 24 h
  IC50: 115 µM
SK-N-AS cells
  IC50: 115 ± 3.5 µM
T98G cells
  IC50: > 170 µM

## c1cc(-c2nc3ccncc3[nH]2)ccn1 [L1]
[1]
  MIC: > 1000 µg/mL
CCD-1059Sk cells
  IC50: > 509 µM
[2]; ATCC12228, Gram-positive bacteria, micro-dilution broth, read-out: MIC, S. epidermidis ATCC 12228
  MIC: > 1000 µg/mL
E. coli ATCC 25922
  MIC: > 1000 µg/mL
C. albicans ATCC 102231; Candida albicans, ATCC102231, read-out: MIC, C. albicans ATCC 102231
  MIC: > 1000 µg/mL
A549 cells
  IC50: > 509 µM
SK-N-AS cells; Homo sapiens, SK-N-AS, 24 h
  IC50: > 509 µM
C. glabrata ATCC 2091; Nakaseomyces glabratus, ATCC2091, read-out: MIC, C. glabrata ATCC 2091
  MIC: > 1000 µg/mL
K. pneumoniae ATCC 13883
  MIC: > 1000 µg/mL
B. subtilis ATCC 6633; ATCC6633, Gram-positive bacteria, micro-dilution broth, read-out: MIC, B. subtilis ATCC 6633
  MIC: > 1000 µg/mL
S. aureus ATCC 25923; ATCC25923, Gram-positive bacteria, micro-dilution broth, read-out: MIC, S. aureus ATCC 25923
  MIC: > 1000 µg/mL
M. luteus ATCC 10240; ATCC10240, Gram-positive bacteria, micro-dilution broth, read-out: MIC, M. luteus ATCC 10240
  MIC: 500 µg/mL (≈ 2550 µM)
P. aeruginosa ATCC 9027
  MIC: > 1000 µg/mL
[3]; Lodderomyces parapsilosis, ATCC22019
  MIC: > 1000 µg/mL
B. cereus ATCC 10876; ATCC10876, Gram-positive bacteria, micro-dilution broth, read-out: MIC, B. cereus ATCC 10876
  MIC: > 1000 µg/mL
E. faecalis ATCC 29212; ATCC29212, Gram-positive bacteria, micro-dilution broth, read-out: MIC, E. faecalis ATCC 29212
  MIC: > 1000 µg/mL
T98G cells
  IC50: 210 ± 12 µM
P. mirabilis ATCC 12453
  MIC: > 1000 µg/mL

## C[C@@H]1[C@H](O)[C@@H](C)/C=C/C=C/CC/C=C/C=C/C=C/C=C/C(O[C@H]2O[C@H](C)[C@@H](O)[C@H](N)[C@@H]2O)CC2O[C@](O)(CC(O)C(O)CCC(O)CC(O)CC(O)CC(=O)O[C@H]1C)CC(O)C2C(=O)O (some centres unmarked) [Nys, nystatin, reference compound]
C. albicans ATCC 102231; [4]
  MIC, C. albicans ATCC 102231: 0.24 µg/mL (≈ 0.259 µM)
C. glabrata ATCC 2091; [4]
  MIC, C. glabrata ATCC 2091: 0.48 µg/mL (≈ 0.518 µM)
[3]
  MIC, C. parapsilosis ATCC 22019: 0.24 µg/mL (≈ 0.259 µM)

## CN[C@H](CC(C)C)C(=O)N[C@H]1C(=O)N[C@@H](CC(N)=O)C(=O)N[C@H]2C(=O)N[C@H]3C(=O)N[C@H](C(=O)N[C@H](C(=O)O)c4cc(O)cc(O)c4-c4cc3ccc4O)[C@H](O)c3ccc(c(Cl)c3)Oc3cc2cc(c3O[C@@H]2O[C@H](CO)[C@@H](O)[C@H](O)[C@H]2O[C@H]2C[C@](C)(N)[C@H](O)[C@H](C)O2)Oc2ccc(cc2Cl)[C@H]1O [Van, Vancomycin, reference compound]
[2]; ATCC12228, read-out: MIC, S. epidermidis ATCC 12228
  MIC: 0.98 µg/mL (≈ 0.676 µM)
B. subtilis ATCC 6633; ATCC6633, read-out: MIC, B. subtilis ATCC 6633
  MIC: 0.24 µg/mL (≈ 0.166 µM)
S. aureus ATCC 25923; ATCC25923, read-out: MIC, S. aureus ATCC 25923
  MIC: 0.98 µg/mL (≈ 0.676 µM)
M. luteus ATCC 10240; ATCC10240, read-out: MIC, M. luteus ATCC 10240
  MIC: 0.12 µg/mL (≈ 0.0828 µM)
B. cereus ATCC 10876; ATCC10876, read-out: MIC, B. cereus ATCC 10876
  MIC: 0.98 µg/mL (≈ 0.676 µM)
E. faecalis ATCC 29212; ATCC29212, read-out: MIC, E. faecalis ATCC 29212
  MIC: 1.95 µg/mL (≈ 1.35 µM)
